Experimental data: patent publication US7666875B2, “Hydantoin compounds” (Eisai R&D Management Co., Ltd., priority 2005, dated 2010)
Read-outs that look alike come from different tables or passages of the source.

Target: T1, human T-bet (Homo sapiens, UniProt Q9UL17)
T1 construct: expressed in transfected cells; host or cells: engineered HEK cells (HEKT-bet)
T1 sequence (Q9UL17 1-535): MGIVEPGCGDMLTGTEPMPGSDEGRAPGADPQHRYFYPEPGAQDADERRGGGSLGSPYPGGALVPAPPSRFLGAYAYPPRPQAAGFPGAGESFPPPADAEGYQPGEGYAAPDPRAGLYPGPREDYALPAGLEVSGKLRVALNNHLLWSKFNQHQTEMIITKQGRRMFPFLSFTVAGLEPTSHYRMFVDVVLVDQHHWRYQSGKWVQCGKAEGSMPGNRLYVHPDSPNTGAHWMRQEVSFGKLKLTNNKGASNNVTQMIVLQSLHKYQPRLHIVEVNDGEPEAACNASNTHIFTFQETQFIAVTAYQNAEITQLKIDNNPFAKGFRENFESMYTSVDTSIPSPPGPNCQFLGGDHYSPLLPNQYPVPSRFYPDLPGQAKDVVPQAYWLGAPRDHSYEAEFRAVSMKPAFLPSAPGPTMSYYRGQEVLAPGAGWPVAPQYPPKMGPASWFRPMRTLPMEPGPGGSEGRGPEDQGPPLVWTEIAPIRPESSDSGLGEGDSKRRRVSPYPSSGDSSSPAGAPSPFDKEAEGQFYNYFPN
Assay: HEKT-bet-luc assay (T-bet dependent luciferase reporter in engineered HEK cells)
Type: cell-based
Conditions: HEKT-bet cells, compound 24 hours, IC50 normalized to reference ER-213038, read-out: IC50
Procedure: HEKT-bet-luc assay: This assay measures a T-bet dependent reporter (luciferase) activity in engineered HEK cells that express a human T-bet and a T-box responsive element driving luciferase reporter. HEKT-bet cells were plated at 2×10^4/well in 96-well plate and compound was added into cell culture for 24 hours. Luciferase activity was measured by adding 50 μl of Steady-Glo reagent (Promega) and samples were read in Victor V reader (PerkinElmer). The IC50 values were calculated utilizing a maximum value corresponding to the amount of luciferase in the absence of a test compound and a minimum value corresponding to a test compound value obtained at maximum inhibition.
Determination of Normalized HEKT-bet IC50 values: Compounds were assayed in microtiter plates. Each plate included a reference compound which was ER-213038. The un-normalized IC50 value for a particular compound was divided by the IC50 value determined for the reference compound in the same microtiter plate to provide a relative potency value. The relative potency value was then multiplied by the established potency of the reference compound to provide the normalized HEKT-bet IC50 value. […] The IC50 values provided herein were obtained using this normalization method.

| IC50 (Table 3) | IC50 (Table 4) | Structure (SMILES) |
| --- | --- | --- |
| 650 nM | – | COCCN1C(=O)N(CCCc2cccnc2)C(=O)C12CCN(Cc1ccnc3ccccc13)CC2 [Example 81] |
| 650 nM | – | COCCN1C(=O)N(CC#Cc2cccc(OC)c2)C(=O)C12CCN(Cc1ccccc1)CC2 [Example 82] |
| 667 nM | – | COc1cc(CN2CCC3(CC2)C(=O)N(C/C=C/c2ccccc2)C(=O)N3CCn2cccc2)cc(OC)c1 [Example 83] |
| 681 nM | – | COCCN1C(=O)N(Cc2cccc(OC)c2)C(=O)C12CCN(Cc1cccc(-c3cccc(O)c3)c1)CC2 [Example 84] |
| 750 nM | – | COCCN1C(=O)N(Cc2cccc(OC)c2)C(=O)C12CCN(Cc1cccc(-c3ccsc3)c1)CC2 [Example 85] |
| 757 nM | – | COc1cc(CN2CCC3(CC2)C(=O)N(C/C=C/c2ccccc2)C(=O)N3CC=C(C)C)cc(OC)c1 [Example 86] |
| 782 nM | – | COCCN1C(=O)N(Cc2cccc(OC)c2)C(=O)C12CCN(Cc1c(Cl)cccc1Cl)CC2 [Example 87] |
| 798 nM | – | O=C1N(C/C=C/c2ccccc2)C(=O)C2(CCN(Cc3cccc4ccccc34)CC2)N1CCCO [Example 88] |
| 835 nM | – | COCCN1C(=O)N(C/C=C/Cc2cccc(OC)c2)C(=O)C12CCN(Cc1ccccc1)CC2 [Example 89] |
| 838 nM | – | COCCN1C(=O)N(CCCc2ccccc2)C(=O)C12CCN(Cc1ccccc1)CC2 [Example 90] |
| 845 nM | – | COCCN1C(=O)N(Cc2cccc(OC)c2)C(=O)C12CCN(Cc1cc(C)c(C)s1)CC2 [Example 91] |
| 868 nM | – | COCCN1C(=O)N(Cc2cccc(OC)c2)C(=O)C12CCN(Cc1cccc(-c3ccc4[nH]ccc4c3)c1)CC2 [Example 92] |
| 914 nM | – | COCCN1C(=O)N(CCCCCCCCO)C(=O)C12CCN(Cc1ccccc1)CC2 [Example 93] |
| 936 nM | – | COCCN1C(=O)N(Cc2ccoc2)C(=O)C12CCN(Cc1cc(OC)cc(OC)c1)CC2 [Example 94] |
| 970 nM | – | CCN1C(=O)N(Cc2ccc3ccccc3c2)C(=O)C12CCN(Cc1ccc3ccccc3c1)CC2 [Example 95] |
| 1030 nM | – | COCCN1C(=O)N(Cc2ccc3cc4ccccc4cc3c2)C(=O)C12CCN(Cc1ccccc1)CC2 [Example 96] |
| 1080 nM | – | COc1cccc(CN2CCC3(CC2)C(=O)N(Cc2cc(OC)cc(OC)c2)C(=O)N3Cc2ccc3c(c2)nnn3C)c1 [Example 97] |
| 1100 nM | – | COc1cccc(CN2C(=O)N(Cc3cccc(C#N)c3)C3(CCN(Cc4ccccc4)CC3)C2=O)c1 [Example 98] |
| 1150 nM | – | COc1cc(CN2CCC3(CC2)C(=O)N(Cc2cc(OC)cc(OC)c2)C(=O)N3CSC)cc(OC)c1 [Example 99] |
| 1240 nM | – | COCCN1C(=O)N(Cc2ccc(C(=O)c3ccccc3)cc2)C(=O)C12CCN(Cc1ccccc1)CC2 [Example 100] |
| 1240 nM | – | COCCN1C(=O)N(Cc2cccc(OC)c2)C(=O)C12CCN(Cc1cccc3nsnc13)CC2 [Example 101] |

| IC50 (Table 3) | IC50 (Table 4) | Structure (SMILES) |
| --- | --- | --- |
| 1320 nM | – | COCCN1C(=O)N(Cc2cccc(OC)c2)C(=O)C12CCN(Cc1cc(F)cc3c1OCOC3)CC2 [Example 102] |
| 1340 nM | – | COCCN1C(=O)N(Cc2cccc(OC)c2)C(=O)C12CCN(Cc1ccccc1OC(F)(F)F)CC2 [Example 103] |
| 1390 nM | – | CCOC(=O)CCCCN1C(=O)N(Cc2cccc(OC)c2)C(=O)C12CCN(Cc1ccccc1)CC2 [Example 104] |
| 1390 nM | – | COc1cccc(CN2C(=O)N(Cc3cccc4cccnc34)C3(CCN(Cc4cccc5ccccc45)CC3)C2=O)c1 [Example 105] |
| 1460 nM | – | COCCN1C(=O)N(CC(=O)c2ccc3ccccc3c2)C(=O)C12CCN(Cc1ccccc1)CC2 [Example 107] |
| 1470 nM | – | COCCN1C(=O)N(Cc2cccc(OC)c2)C(=O)C12CCN(C/C=C/c1ccc(OC)cc1)CC2 [Example 108] |
| 1520 nM | – | COc1cccc(CN2C(=O)N(CC=C(C)C)C3(CCN(Cc4ccccc4)CC3)C2=O)c1 [Example 109] |
| 1540 nM | – | COCCN1C(=O)N(Cc2cccc(OC)c2)C(=O)C12CCN(CC=C(c1ccccc1)c1ccccc1)CC2 [Example 110] |
| 1550 nM | – | COCCN1C(=O)N(Cc2cccc(OC)c2)C(=O)C12CCN(Cc1cc(F)c(O)c(OC)c1)CC2 [Example 111] |
| 1570 nM | – | COc1cccc(CN2C(=O)N(CCOCc3ccccc3)C3(CCN(Cc4ccccc4)CC3)C2=O)c1 [Example 112] |
| 1650 nM | – | COCCN1C(=O)N(Cc2cccc(OC)c2)C(=O)C12CCN(CC(=O)C13CC4CC(CC(C4)C1)C3)CC2 [Example 113] |
| 1740 nM | – | COCCN1C(=O)N(Cc2cc(C(C)(C)C)cc(C(C)(C)C)c2)C(=O)C12CCN(Cc1ccccc1)CC2 [Example 114] |
| 1810 nM | – | COCCN1C(=O)N(Cc2cccc(OC)c2)C(=O)C12CCN(Cc1ccc3ccc4cccc5ccc1c3c45)CC2 [Example 115] |
| 1830 nM | – | COc1cccc(CN2C(=O)N(Cc3ccc(Cl)cc3)C3(CCN(Cc4ccccc4)CC3)C2=O)c1 [Example 116] |
| 1840 nM | – | COCCN1C(=O)N(CCCCOc2ccccc2)C(=O)C12CCN(Cc1ccccc1)CC2 [Example 117] |
| 1880 nM | – | COCCN1C(=O)N(Cc2cccc(OC)c2)C(=O)C12CCN(Cc1cc(O)c(OC)c(OC)c1)CC2 [Example 118] |
| 1930 nM | – | COCCN1C(=O)N(CCOCc2ccccc2)C(=O)C12CCN(Cc1ccccc1)CC2 [Example 119] |
| 1990 nM | – | COCCN1C(=O)N(Cc2cccc(OC)c2)C(=O)C12CCN(Cc1ccc(-c3cccs3)s1)CC2 [Example 120] |
| – | 25 nM | COc1cc(CN2CCC3(CC2)C(=O)N(C/C=C/c2ccccc2)C(=O)N3C)cc(OC)c1 [Example 121] |
| – | 60 nM | COCCN1C(=O)N(Cc2cccc(OC)c2)C(=O)C12CCN(Cc1c(C)ccc3ccccc13)CC2 [Example 123] |
| – | 68 nM | CCN1C(=O)N(C/C=C/c2ccccc2)C(=O)C12CCN(Cc1cccc(C)c1)CC2 [Example 125] |

| IC50 (Table 3) | IC50 (Table 4) | Structure (SMILES) |
| --- | --- | --- |
| – | 73 nM | COc1cc(CN2CCC3(CC2)C(=O)N(C/C=C/c2ccccc2)C(=O)N3Cc2cccc(-n3cccc3)c2)cc(OC)c1 [Example 126] |
| – | 82 nM | COCCN1C(=O)N(Cc2cccc(OC)c2)C(=O)C12CCN(Cc1ccc(C)c3ccccc13)CC2 [Example 127] |
| – | 86 nM | COCCN1C(=O)N(Cc2cccc(OC)c2)C(=O)C12CCN(Cc1cccc3ccccc13)CC2 [Example 128] |
| – | 94 nM | COCCN1C(=O)N(Cc2cccc(OC)c2)C(=O)C12CCN(Cc1c(OC)ccc3ccccc13)CC2 [Example 129] |
| – | 100 nM | COCCN1C(=O)N(C/C=C/c2ccccc2)C(=O)C12CCN(Cc1cccc3ccccc13)CC2 [Example 131] |
| – | 101 nM | COCCN1C(=O)N(C/C=C/c2ccccc2)C(=O)C12CCN(Cc1cccc(OC)c1)CC2 [Example 132] |
| – | 119 nM | COCCN1C(=O)N(Cc2cccc(OC)c2)C(=O)C12CCN(Cc1cccc3ccccc13)CC2 [Example 133] |
| – | 120 nM | COCCN1C(=O)N(Cc2cccc(OC)c2)C(=O)C12CCN(Cc1cccc(C)c1C)CC2 [Example 134] |
| – | 123 nM | COCCN1C(=O)N(Cc2cccc(OC)c2)C(=O)C12CCN(Cc1ccc3cc(OC)ccc3c1)CC2 [Example 135] |
| – | 124 nM | COCN1C(=O)N(C/C=C/c2ccccc2)C(=O)C12CCN(Cc1cc(OC)cc(OC)c1)CC2 [Example 136] |
| – | 124 nM | CCN1C(=O)N(Cc2cccc(OC)c2)C(=O)C12CCN(Cc1cc(OC)cc(OC)c1)CC2 [Example 137] |
| – | 125 nM | COc1cccc(CN2C(=O)N(Cc3ccncc3)C3(CCN(Cc4cccc5ccccc45)CC3)C2=O)c1 [Example 138] |
| – | 125 nM | COCCN1C(=O)N(Cc2cccc(OC)c2)C(=O)C12CCN(Cc1cc(C)c(C)cc1C)CC2 [Example 139] |
| – | 127 nM | COc1cccc(CN2C(=O)N(Cc3ccc(-n4cccn4)cc3)C3(CCN(Cc4cccc5ccccc45)CC3)C2=O)c1 [Example 140] |
| – | 130 nM | COCCN1C(=O)N(Cc2cccc(OC)c2)C(=O)C12CCN(Cc1c(C)cccc1C)CC2 [Example 141] |
| – | 130 nM | CCOc1ccc2ccccc2c1CN1CCC2(CC1)C(=O)N(Cc1cccc(OC)c1)C(=O)N2CCOC [Example 142] |
| – | 134 nM | COc1cc(CN2CCC3(CC2)C(=O)N(C/C=C/c2ccccc2)C(=O)N3Cc2ccccn2)cc(OC)c1 [Example 143] |
| – | 134 nM | COc1cc(CN2CCC3(CC2)C(=O)N(Cc2cc(OC)cc(OC)c2)C(=O)N3C)cc(OC)c1 [Example 144] |
| – | 139 nM | COc1cc(CN2CCC3(CC2)C(=O)N(Cc2cc(OC)cc(OC)c2)C(=O)N3Cc2ccncc2)cc(OC)c1 [Example 145] |

| Structure (SMILES) | IC50 (Table 3) | IC50 (Table 4) |
| --- | --- | --- |
| COCCN1C(=O)N(Cc2cccc(OC)c2)C(=O)C12CCN(C1CCc3ccc(C)cc31)CC2 (centres unmarked) [Example 106] | 1420 nM | – |
